What was measured:
[1] = test system: pupillary diameter of the eye; test: Reversal of Tropicamide 1% mydriasis by caffeine 2.0 w/v % in saline, left eye only, person (Grand Seiko autorefractor); type: in vivo, human; conditions: for Pupillary diameter Left eye: given 50 mins after Tropicamide 1%
Description: FIG. 4 illustrates that difference in pupil diameter in the right and left eyes of an individual, wherein Tropicamide 1% was instilled in both eyes and approximately 50 minutes later, an ophthalmic composition comprising Caffeine at 2 w/v. % was instilled in the left eye only.
The following Table 3 illustrates the pupil diameter of a person. An aqueous solution of 1% Tropicamide was instilled in both eyes. Pupillary diameter was measured over a 15 second interval with a Grand Seiko autorefractor with the individual fixating at an object positioned 1 meter away. Pupillary diameter was dynamically sampled at multiple time points over the 15 second interval. Pupillary diameters for both eyes were measured prior to instillation (baseline), soon after instillation of 1% Tropicamide and then 20 minutes and 50 minutes post instillation. […] At this time point, a single drop (0.05 mL) of 2.0 w/v % Caffeine in Saline (0.9 wt. % NaCl) (composition 1) was instilled in the left eye only. The individual was monitored 30 minutes, 60 minutes, 2 hrs, 4 hrs and 6.5 hrs from instillation of Caffeine.
FIG. 4 illustrates the difference in pupillary diameter between the right and left eyes 4 hrs from the instillation of Tropicamide 1% in both eyes and […] from instillation of Caffeine 2 w/v % in the left eye.

[2] = test system: pupillary diameter of the eye; test: Pupillary diameter over 2 hours after a single eye drop of caffeine 2 wt. % in water, 5 individuals (Grand Seiko autorefractor); type: in vivo, human; conditions: for average decrease in pupillary diameter compared to baseline: 5 individuals; for maximal decrease in pupillary diameter: largest among individuals
Description: FIG. 1 is a schematic of the pupil diameter of eyes prescribed with caffeine 2% over time.
FIG. 1 illustrates the baseline pupillary diameter and the pupillary diameter over 2 hours in a group of 5 individuals (3 males and 2 females, age ranging from 31 to 45 yrs) prescribed with an ophthalmic composition comprising caffeine. A topical ophthalmic composition comprising caffeine 2 wt. % in water was instilled (as a single eye drop in the range of from 0.025 mL to 0.075 ml, such as an average single drop size of about 0.05 mL) in one eye of each of the individuals. Pupillary diameter at baseline and at subsequent time points was captured using a Grand Seiko autorefractor for 11 secs and data summarized. The room illumination was standardized at 150 to 200 lux. As observed from FIG. 1, there was a decrease in pupillary diameter post instillation. On average, compared to baseline, the decrease in pupillary diameter at 30 mins and 1 hr post instillation was 0.3 mm and was approximately 0.2 mm at 2 hrs. There was some variation between the various individuals, however the maximal […] in pupillary diameter at 30 mins was 0.4 mm, was approximately 0.8 mm at 1 hr and was approximately 0.6 mm at 2 hrs. Such an ophthalmic composition, as disclosed herein, can be used according to the methods provided herein to reduce the pupillary diameter of a treated eye of a subject and be effective in treating or managing symptoms related to presbyopia and/or mydriasis and/or eyes with disorders requiring light modulation such as one or more of vision disturbances.

Compound: Cn1c(=O)c2c(ncn2C)n(C)c1=O [Caffeine, caffeine (1,7 methylxanthine)]
- Difference in pupillary diameter (Right − Left) ([1]; 30 mins post instillation of Caffeine 2 w/v % in left eye, both eyes Tropicamide 1%): 0.5 mm
- Difference in pupillary diameter (Right − Left) ([1]; 60 mins post instillation of Caffeine 2 w/v % in left eye, both eyes Tropicamide 1%): 0.7 mm
- Difference in pupillary diameter (Right − Left) ([1]; 2 hrs post instillation of Caffeine 2 w/v % in left eye, both eyes Tropicamide 1%): 0.8 mm
- difference between the pupils ([1]; at 1 and 2 hours following instillation of Caffeine in the left eye, both eyes Tropicamide 1%): approximately 0.8 mm
- left eye pupil diameter ([1]; left eye (Tropicamide 1% then Caffeine 2 w/v %), 6.5 hrs from the baseline visit, returned to normal): 3.8 mm
- Pupillary diameter Left eye ([1]; left eye, 30 mins post instillation of Caffeine 2 w/v %): 6.8 mm
- Pupillary diameter Left eye ([1]; left eye, 60 mins post instillation of Caffeine 2 w/v %): 6.5 mm
- Pupillary diameter Left eye ([1]; left eye, 2 hrs post instillation of Caffeine 2 w/v %): 6.3 mm
- left eye pupillary diameter ([1]; left eye, 3 hrs from instillation of Caffeine 2 w/v %, 4 hrs from Tropicamide 1% (FIG. 4)): 5.9 mm
- average decrease in pupillary diameter compared to baseline ([2]; 30 mins post instillation, 150 to 200 lux): 0.3 mm
- maximal decrease in pupillary diameter ([2]; 30 mins): 0.4 mm
- average decrease in pupillary diameter compared to baseline ([2]; 1 hr post instillation): 0.3 mm
- maximal decrease in pupillary diameter ([2]; 1 hr): approximately 0.8 mm
- average decrease in pupillary diameter compared to baseline ([2]; 2 hrs post instillation): approximately 0.2 mm
- maximal decrease in pupillary diameter ([2]; 2 hrs): approximately 0.6 mm
